Laboratory results reported in patent EP0468441A1, “Use of particular compounds for manufacture of pharmaceutical formulations for metabolic treatments” (Prendergast, Patrick Thomas, priority 1990, dated 1992).

How the values were obtained:
HIV-RF = assay: In-vitro anti-viral test on C81-66 cells infected with HIV-RF (wells positive for HIV p24); assay type: cell-based; details: no pretreatment, number of wells positive for HIV p24 out of two replicates
Source text: NOTE: • 1. The results are expressed as the number of wells positive for HIV p24 (out of the two replicates at each multiplicity of infection). Thus, 2 means that both wells contained viral antigen, while 0 means no virus was present. • 2. Pretreatment means that the antibodies to Human Alpha feto protein were present during HIV virus absorption as well as afterwards. • 3. An error in diluting the antibodies was made, so that following the first three concentrations (6,2, and 0.6 percent), an extra 10 fold dilution was made, so that the next dilution was 0.02% rather than 0.2%.

HIV gp120 peptide = target: T1, HIV gp120 peptide (Human immunodeficiency virus type 1 group M subtype B, UniProt P04578); assay: Binding of 3H arachidonic acid (C20:4) to peptide, free ligand removed with Lipidex 1000
T1 construct: Peptide gp120, 1 mg in 180 µl of an aqueous solution of acetic acid and 20 µl acetonitrile
Method: (§1) Solubilisation of the peptides: • : Peptide gp120, 1 mg in 180 µl of an aqueous solution of acetic acid and 20 µl acetonitrile • : Peptide p24, 1 mg in 200 µl of an aqueous solution of acetic acid
(§2) Incubation of 50 […] or 100 µg of each peptide or 10 µg of pure rat Alpha Feto Protein with 270.000 DPM ^3H C20:4 (SA 198 Ci/mmol), overnight at 4° C, in 0.5 ml of 10 mM potassium phosphate buffer 10mM pH 7.4.
(§3) Binding of Arachidonic Acid to peptides or protein measured after separation of the free ligand from the bound one using Lipidex 1000 (100 µl Lipidex solution 10 minutes at 4°C. The free ligand is bound to Lipidex 1000, the bound ligand to peptides and proteins remains in the supernatant after centrifugation.

HIV p24 peptide = target: T2, HIV p24 peptide (Human immunodeficiency virus type 1 group M subtype B, UniProt P04591); assay: as above; details: 270.000 DPM 3H C20:4, overnight at 4° C, 10 mM potassium phosphate buffer pH 7.4
T2 construct: Peptide p24, 1 mg in 200 µl of an aqueous solution of acetic acid
Method: as §1, §2, §3

[1] = target: T3, pure rat Alpha Feto Protein (Rattus norvegicus, UniProt P02773); assay: Binding of 3H arachidonic acid (C20:4) to protein, free ligand removed with Lipidex 1000; details: 10 µg pure rat AFP; 270.000 DPM 3H C20:4, overnight at 4° C, 10 mM potassium phosphate buffer pH 7.4
T3 sequence (P02773 25-611): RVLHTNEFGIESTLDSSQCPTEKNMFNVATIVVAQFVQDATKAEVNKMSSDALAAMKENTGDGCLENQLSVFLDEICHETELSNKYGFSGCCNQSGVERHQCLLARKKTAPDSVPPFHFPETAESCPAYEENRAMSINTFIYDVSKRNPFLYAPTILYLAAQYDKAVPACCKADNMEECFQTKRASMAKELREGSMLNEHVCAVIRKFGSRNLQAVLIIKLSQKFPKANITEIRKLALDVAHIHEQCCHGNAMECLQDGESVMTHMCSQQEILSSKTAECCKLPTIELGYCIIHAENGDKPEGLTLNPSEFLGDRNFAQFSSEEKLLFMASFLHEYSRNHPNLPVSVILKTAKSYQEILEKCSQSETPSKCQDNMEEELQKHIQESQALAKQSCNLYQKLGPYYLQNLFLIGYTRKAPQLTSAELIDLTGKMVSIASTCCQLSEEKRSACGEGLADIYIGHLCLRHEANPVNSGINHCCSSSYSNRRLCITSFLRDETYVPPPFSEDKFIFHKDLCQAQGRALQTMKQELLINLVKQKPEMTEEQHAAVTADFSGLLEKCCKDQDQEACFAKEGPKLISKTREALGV
Method: as §2, §3

[2] = Solubility of 3H C20:4 before and after addition of peptides or protein; assay type: physicochemical
Method: as §2
Solubility of ^3H C20:4 tested before and after addition of peptides or protein: […]

T1 sequence (P04578 247-267): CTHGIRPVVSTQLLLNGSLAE

SMILES: Cc1cn([C@H]2C[C@H](N=[N+]=[N-])[C@@H](CO)O2)c(=O)[nH]c1=O [AZT]
- Virus Replication at a.m.i. (log) of: -1 (HIV-RF; 10 μM): 2
- Virus Replication at a.m.i. (log) of: -2 (HIV-RF; 10 μM): 1
- Virus Replication at a.m.i. (log) of: -3 (HIV-RF; 10 μM): 0
- Virus Replication at a.m.i. (log) of: -4 (HIV-RF; 10 μM): 0
- Virus Replication at a.m.i. (log) of: -5 (HIV-RF; 10 μM): 0
- Virus Replication at a.m.i. (log) of: -6 (HIV-RF; 10 μM): 0
- Virus Replication at a.m.i. (log) of: -1 (HIV-RF; Conc. 0.01 (μM)): 2
- Virus Replication at a.m.i. (log) of: -2 (HIV-RF; Conc. 0.01 (μM)): 2
- Virus Replication at a.m.i. (log) of: -3 (HIV-RF; Conc. 0.01 (μM)): 2
- Virus Replication at a.m.i. (log) of: -4 (HIV-RF; Conc. 0.01 (μM)): 2
- Virus Replication at a.m.i. (log) of: -5 (HIV-RF; Conc. 0.01 (μM)): 1
- Virus Replication at a.m.i. (log) of: -6 (HIV-RF; Conc. 0.01 (μM)): 0
- Virus Replication at a.m.i. (log) of: -1 (HIV-RF; Conc. 0.1 (μM)): 2
- Virus Replication at a.m.i. (log) of: -2 (HIV-RF; Conc. 0.1 (μM)): 2
- Virus Replication at a.m.i. (log) of: -3 (HIV-RF; Conc. 0.1 (μM)): 2
- Virus Replication at a.m.i. (log) of: -4 (HIV-RF; Conc. 0.1 (μM)): 2
- Virus Replication at a.m.i. (log) of: -5 (HIV-RF; Conc. 0.1 (μM)): 0
- Virus Replication at a.m.i. (log) of: -6 (HIV-RF; Conc. 0.1 (μM)): 0
- Virus Replication at a.m.i. (log) of: -1 (HIV-RF; Conc. 1 (μM)): 2
- Virus Replication at a.m.i. (log) of: -2 (HIV-RF; Conc. 1 (μM)): 2
- Virus Replication at a.m.i. (log) of: -3 (HIV-RF; Conc. 1 (μM)): 2
- Virus Replication at a.m.i. (log) of: -4 (HIV-RF; Conc. 1 (μM)): 1
- Virus Replication at a.m.i. (log) of: -5 (HIV-RF; Conc. 1 (μM)): 2
- Virus Replication at a.m.i. (log) of: -6 (HIV-RF; Conc. 1 (μM)): 2

SMILES: CCCCC/C=C\C/C=C\C/C=C\C/C=C\CCCC(=O)O [^3H C20:4, Arachidonic Acid]
- Binding of ^3H C20:4 to peptides or protein after Lipidex 1000 treatment (HIV gp120 peptide; 270.000 DPM 3H C20:4, overnight at 4° C, 10 mM potassium phosphate buffer pH 7.4): 1.2 x 10^-6 DPM/mg
- binding of C20:4 (HIV gp120 peptide; conclusion in words): clear binding
- Binding of ^3H C20:4 to peptides or protein after Lipidex 1000 treatment (HIV p24 peptide): 0.8 x 10^-6 DPM/mg
- Binding of ^3H C20:4 to peptides or protein after Lipidex 1000 treatment [1]: 14.1 x 10^-6 DPM/mg
- Solubility of ^3H C20:4 ([2]; in presence of 10 µg pure rat AFP): 100%
- Solubility of ^3H C20:4 ([2]; in presence of gp120: 50µg): 65%
- Solubility of ^3H C20:4 ([2]; in presence of gp120: 100µg): 90%
- Solubility of ^3H C20:4 ([2]; in presence of p24 50µg): 23%
- Solubility of ^3H C20:4 ([2]; in presence of p24 100µg): 30%
- insolubility of the Arachidonic Acid ([2]; in the presence of p24 peptide, conclusion in words): important insolubility
- Solubility of ^3H C20:4 ([2]; without peptide or protein): 70%
